Laboratory results published in patent US10612035B2, “EPSPS mutants” (priority 2006, dated 2020).

What was measured:
[1] = molecular target: wild-type EPSPS from E. coli (Escherichia coli, UniProt P0A6D3); conditions: read-out: apparent Km for PEP; cited from earlier work
[2] = system: Canola plants regenerated that contain the P178A mutant; conditions: applied at commercial rates; canola with P178A EPSPS mutant
Excerpt: The following genoplast (recombinagenic oligonucleobase) was made to make a P178A change in Brassica napus (canola) germplasm:
(§1) wherein V is a fluorescent dye (V=Cy3) and H is a reverse nucleotide or reverse base (H=3′DMTdCCPG). The underlined nucelobases represent the heterologous region (codon) where the mutation occurs in the canola genome, ie, A. The genoplast is made according to well known techniques and the genoplast is preferably delivered into a canola plant cell via microparticle bombardment, ie, biolistics.

[3] = system: EPSPS mutations in E coli (Area) and Arabidopsis NM 130093; conditions: mutations 1-9 of the table
Excerpt: To identify mutant EPSPS genes that will produce a gene product that provides resistance to glyphosate, in vitro screening can be done in a bacterial system to save time and resources. Growth curves of bacterial colonies expressing candidate mutant EPSPS genes can be generated to evaluate the mutant EPSPS genes in providing a glyphosate resistant phenotype. […] In another embodiment of the present invention, the E coli EPSPS gene, also called the AroA gene, can be used to evaluate EPSPS mutants for glyphosate resistance. Growth curve assays and enzymatic assays measuring Ki and Km values for candidate mutants are conducted according to well known assay techniques.

[4] = system: Rice plants regenerated that contain the P173A mutant; conditions: applied at commercial rates; rice with P173A EPSPS mutant
Excerpt: The following genoplast (recombinagenic oligonucleobase) was made to make a P173A change in Oryza sativa (rice) germplasm:
as §1, with “nucleobases” for “nucelobases”, “rice” for “canola”

Sequence of wild-type EPSPS from E. coli (P0A6D3 whole entry): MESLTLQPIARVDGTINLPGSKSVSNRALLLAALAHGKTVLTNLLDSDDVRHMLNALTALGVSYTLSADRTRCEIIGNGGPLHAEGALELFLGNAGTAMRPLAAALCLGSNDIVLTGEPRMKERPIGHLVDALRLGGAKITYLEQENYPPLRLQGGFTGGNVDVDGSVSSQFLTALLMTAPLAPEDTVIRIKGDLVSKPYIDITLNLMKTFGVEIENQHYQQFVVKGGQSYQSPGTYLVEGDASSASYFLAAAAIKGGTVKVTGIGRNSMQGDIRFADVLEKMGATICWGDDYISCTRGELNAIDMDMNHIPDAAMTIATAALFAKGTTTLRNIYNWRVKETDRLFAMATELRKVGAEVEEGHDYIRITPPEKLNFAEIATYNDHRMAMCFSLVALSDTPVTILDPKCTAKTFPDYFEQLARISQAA

Row | Compound | Km [1] | resistance of plants to glyphosate [2] | glyphosate resistant phenotype [3] | resistance of plants to glyphosate [4]
1 | C=C(OP(=O)(O)O)C(=O)O [PEP, phosphoenolpyruvic acid] | 10 µM | – | – | –
2 | O=C(O)CNCP(=O)(O)O [glyphosate, N-phosphonomethylglycine] | – | resistant | resistant | resistant
